Data published in paper PMC8429728, “TNK1 is a ubiquitin-binding and 14-3-3-regulated kinase that can be targeted to block tumor growth” (Nature Communications, 2021).
Read-outs that look alike come from different tables or passages of the source.

Key:
Assay in all cases: biochemical
Design in all cases: Reaction Biology 371-kinase panel at Km ATP, per cent enzyme activity relative to DMSO, single dose in duplicate
Details in all cases: duplicate measurements, Km ATP
[1] = target: SGK1 (Homo sapiens, UniProt O00141)
Chain of SGK1 (O00141 whole entry): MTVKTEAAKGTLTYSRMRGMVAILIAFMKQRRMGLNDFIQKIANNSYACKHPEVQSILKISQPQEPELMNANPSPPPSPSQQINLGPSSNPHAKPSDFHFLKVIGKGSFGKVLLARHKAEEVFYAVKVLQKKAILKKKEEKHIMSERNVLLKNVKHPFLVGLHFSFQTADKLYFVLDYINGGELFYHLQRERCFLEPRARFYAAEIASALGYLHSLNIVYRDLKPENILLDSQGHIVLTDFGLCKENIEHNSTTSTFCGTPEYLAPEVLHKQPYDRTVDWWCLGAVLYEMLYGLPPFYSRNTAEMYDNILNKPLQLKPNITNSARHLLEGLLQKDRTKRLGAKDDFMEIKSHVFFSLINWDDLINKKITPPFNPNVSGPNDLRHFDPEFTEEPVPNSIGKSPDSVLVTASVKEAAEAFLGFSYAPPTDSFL
Outline: (§1)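 First, kinases from a 371-member panel were exposed in vitro to 300 nM inhibitor. Next, % enzyme activity versus DMSO was computed. Finally, IC50s were derived by sigmoidal dose-response fitting with variable slope and a zero bottom constraint.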

[2] = target: VRK1 (Homo sapiens, UniProt Q99986)
Outline: as §1

[3] = target: LOK/STK10 (Homo sapiens, UniProt O94804)
Outline: as §1

[4] = target: STK21/CIT (Homo sapiens, UniProt O14578)
Outline: as §1

[5] = target: CTK/MATK (Homo sapiens, UniProt P42679)
Chain of CTK/MATK (P42679 whole entry): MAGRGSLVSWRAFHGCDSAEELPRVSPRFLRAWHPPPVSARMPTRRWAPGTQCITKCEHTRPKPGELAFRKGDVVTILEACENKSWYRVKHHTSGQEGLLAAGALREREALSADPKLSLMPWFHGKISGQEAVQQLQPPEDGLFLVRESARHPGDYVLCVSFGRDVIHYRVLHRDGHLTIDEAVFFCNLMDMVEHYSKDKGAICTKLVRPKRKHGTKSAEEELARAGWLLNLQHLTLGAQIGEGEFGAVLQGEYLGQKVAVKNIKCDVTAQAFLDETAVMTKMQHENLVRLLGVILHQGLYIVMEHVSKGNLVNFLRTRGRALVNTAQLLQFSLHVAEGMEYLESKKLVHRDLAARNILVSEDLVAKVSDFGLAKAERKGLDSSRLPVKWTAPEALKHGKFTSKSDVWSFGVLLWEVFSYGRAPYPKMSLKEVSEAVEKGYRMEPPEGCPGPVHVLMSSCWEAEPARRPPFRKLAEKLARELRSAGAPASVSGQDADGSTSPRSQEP
Outline: as §1

[6] = target: DDR2 (Homo sapiens, UniProt Q16832)
Outline: as §1

[7] = target: BLK (Homo sapiens, UniProt P51451)
Outline: as §1

[8] = target: T1, MEKK3 (Homo sapiens, UniProt Q99759)
T1 construct: gene MAP3K3
Outline: as §1

[9] = target: IGF1R (Homo sapiens, UniProt P08069)
Chain of IGF1R (P08069 whole entry): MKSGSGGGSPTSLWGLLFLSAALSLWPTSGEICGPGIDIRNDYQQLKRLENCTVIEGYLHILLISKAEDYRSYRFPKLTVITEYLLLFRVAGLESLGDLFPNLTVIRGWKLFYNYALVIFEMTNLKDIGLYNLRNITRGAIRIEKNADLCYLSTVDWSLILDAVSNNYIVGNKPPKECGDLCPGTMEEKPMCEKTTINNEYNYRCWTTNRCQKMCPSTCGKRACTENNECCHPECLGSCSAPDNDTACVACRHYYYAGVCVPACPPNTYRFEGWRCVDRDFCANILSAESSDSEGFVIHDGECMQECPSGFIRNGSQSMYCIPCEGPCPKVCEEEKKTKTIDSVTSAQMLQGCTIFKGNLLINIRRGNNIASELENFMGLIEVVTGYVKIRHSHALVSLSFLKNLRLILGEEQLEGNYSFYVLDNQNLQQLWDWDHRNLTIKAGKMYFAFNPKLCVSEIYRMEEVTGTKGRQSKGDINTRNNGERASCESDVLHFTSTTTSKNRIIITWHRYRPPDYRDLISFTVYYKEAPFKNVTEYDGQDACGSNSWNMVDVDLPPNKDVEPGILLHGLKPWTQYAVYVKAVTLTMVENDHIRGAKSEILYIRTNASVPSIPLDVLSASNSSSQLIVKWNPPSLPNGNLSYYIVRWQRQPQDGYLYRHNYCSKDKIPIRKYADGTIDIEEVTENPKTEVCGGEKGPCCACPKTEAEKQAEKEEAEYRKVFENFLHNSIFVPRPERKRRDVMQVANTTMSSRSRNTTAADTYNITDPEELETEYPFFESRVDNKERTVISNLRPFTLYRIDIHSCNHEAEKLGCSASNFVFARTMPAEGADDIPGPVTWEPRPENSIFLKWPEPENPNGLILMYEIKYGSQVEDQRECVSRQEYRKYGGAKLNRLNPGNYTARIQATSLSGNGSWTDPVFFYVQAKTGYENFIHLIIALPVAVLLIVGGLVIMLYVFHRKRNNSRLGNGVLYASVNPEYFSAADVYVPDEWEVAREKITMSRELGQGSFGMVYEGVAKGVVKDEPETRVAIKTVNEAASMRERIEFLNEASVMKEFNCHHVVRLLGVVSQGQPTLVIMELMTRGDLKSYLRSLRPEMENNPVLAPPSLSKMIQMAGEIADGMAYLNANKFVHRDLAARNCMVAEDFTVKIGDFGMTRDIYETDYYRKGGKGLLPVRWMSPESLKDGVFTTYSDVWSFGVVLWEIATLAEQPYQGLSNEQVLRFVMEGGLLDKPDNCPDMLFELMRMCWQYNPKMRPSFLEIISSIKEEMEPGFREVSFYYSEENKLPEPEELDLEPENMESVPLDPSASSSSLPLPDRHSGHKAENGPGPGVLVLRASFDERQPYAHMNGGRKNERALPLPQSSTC
Outline: as §1

[10] = target: T2, PKG1b (Homo sapiens, UniProt Q13976)
T2 construct: gene PRKG1; isoform beta
T2 sequence (Q13976 whole entry, canonical isoform): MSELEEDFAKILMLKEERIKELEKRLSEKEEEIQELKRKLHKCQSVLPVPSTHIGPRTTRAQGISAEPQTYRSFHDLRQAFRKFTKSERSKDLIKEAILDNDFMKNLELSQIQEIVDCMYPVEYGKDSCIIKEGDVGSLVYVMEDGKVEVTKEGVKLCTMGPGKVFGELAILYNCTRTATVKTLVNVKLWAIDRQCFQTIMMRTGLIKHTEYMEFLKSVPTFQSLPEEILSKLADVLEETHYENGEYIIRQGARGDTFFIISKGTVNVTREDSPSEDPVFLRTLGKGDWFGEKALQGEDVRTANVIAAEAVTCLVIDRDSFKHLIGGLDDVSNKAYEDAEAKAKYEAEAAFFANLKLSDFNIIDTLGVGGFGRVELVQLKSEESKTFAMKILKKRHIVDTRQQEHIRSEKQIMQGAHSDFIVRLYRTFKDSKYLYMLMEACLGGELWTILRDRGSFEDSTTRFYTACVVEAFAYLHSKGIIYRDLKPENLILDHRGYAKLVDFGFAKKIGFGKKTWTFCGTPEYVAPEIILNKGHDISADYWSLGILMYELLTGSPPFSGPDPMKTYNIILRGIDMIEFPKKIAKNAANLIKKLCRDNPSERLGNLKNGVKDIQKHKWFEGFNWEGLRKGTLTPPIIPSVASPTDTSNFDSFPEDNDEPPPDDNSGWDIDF
Outline: as §1

[11] = target: NEK6 (Homo sapiens, UniProt Q9HC98)
Outline: as §1

[12] = target: CAMKK1 (Homo sapiens, UniProt Q8N5S9)
Outline: as §1

[13] = target: GSK3a (Homo sapiens, UniProt P49840)
Outline: as §1

[14] = target: PIM3 (Homo sapiens, UniProt Q86V86)
Outline: as §1

[15] = target: T3, CK1d (Homo sapiens, UniProt P48730)
T3 construct: gene CSNK1D
Outline: as §1

[16] = target: EPHA5 (Homo sapiens, UniProt P54756)
Chain of EPHA5 (P54756 whole entry): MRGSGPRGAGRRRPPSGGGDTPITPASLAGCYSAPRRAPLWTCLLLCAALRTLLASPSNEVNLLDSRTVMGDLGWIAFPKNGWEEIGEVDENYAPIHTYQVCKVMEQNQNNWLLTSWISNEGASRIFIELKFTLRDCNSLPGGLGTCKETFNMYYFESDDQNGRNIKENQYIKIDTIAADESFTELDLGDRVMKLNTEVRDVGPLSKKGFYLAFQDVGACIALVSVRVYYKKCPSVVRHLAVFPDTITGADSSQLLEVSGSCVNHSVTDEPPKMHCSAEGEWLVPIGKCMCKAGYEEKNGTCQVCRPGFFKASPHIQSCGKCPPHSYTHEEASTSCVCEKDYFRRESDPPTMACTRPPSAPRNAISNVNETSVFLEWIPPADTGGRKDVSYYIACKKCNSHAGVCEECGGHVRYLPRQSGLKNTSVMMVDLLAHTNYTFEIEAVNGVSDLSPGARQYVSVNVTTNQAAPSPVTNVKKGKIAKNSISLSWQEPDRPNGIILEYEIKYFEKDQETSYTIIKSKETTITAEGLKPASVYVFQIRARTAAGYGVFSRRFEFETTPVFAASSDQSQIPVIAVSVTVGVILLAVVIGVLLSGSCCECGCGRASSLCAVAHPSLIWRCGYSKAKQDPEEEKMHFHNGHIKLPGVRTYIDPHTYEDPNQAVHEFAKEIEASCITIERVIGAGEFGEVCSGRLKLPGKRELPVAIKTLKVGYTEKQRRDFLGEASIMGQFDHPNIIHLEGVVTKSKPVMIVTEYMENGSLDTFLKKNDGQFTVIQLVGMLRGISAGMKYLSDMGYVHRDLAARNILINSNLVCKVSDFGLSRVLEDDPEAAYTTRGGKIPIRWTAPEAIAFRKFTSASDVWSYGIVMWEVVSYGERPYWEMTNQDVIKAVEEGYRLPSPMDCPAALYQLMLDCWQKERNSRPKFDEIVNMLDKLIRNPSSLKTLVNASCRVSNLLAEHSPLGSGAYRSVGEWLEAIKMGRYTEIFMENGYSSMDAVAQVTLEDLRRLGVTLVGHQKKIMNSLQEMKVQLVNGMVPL
Outline: as §1

[17] = target: CAMK1g (Homo sapiens, UniProt Q96NX5)
Chain of CAMK1g (Q96NX5 whole entry): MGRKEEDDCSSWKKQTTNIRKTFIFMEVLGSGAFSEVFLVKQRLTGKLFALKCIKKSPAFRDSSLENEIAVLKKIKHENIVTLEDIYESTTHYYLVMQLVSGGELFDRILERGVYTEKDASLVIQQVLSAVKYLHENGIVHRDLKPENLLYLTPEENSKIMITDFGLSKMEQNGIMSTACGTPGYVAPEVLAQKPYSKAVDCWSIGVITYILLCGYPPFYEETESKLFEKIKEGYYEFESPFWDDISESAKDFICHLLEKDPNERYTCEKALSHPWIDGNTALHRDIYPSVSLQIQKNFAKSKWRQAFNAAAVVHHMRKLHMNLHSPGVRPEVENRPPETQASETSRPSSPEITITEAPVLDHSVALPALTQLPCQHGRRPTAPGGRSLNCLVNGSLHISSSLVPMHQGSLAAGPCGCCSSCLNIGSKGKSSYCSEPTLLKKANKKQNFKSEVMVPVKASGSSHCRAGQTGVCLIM
Outline: as §1

[18] = target: FGFR1 (Homo sapiens, UniProt P11362)
Outline: as §1

[19] = target: TSSK3/STK22C (Homo sapiens, UniProt Q96PN8)
Outline: as §1

[20] = target: HCK (Homo sapiens, UniProt P08631)
Chain of HCK (P08631 whole entry): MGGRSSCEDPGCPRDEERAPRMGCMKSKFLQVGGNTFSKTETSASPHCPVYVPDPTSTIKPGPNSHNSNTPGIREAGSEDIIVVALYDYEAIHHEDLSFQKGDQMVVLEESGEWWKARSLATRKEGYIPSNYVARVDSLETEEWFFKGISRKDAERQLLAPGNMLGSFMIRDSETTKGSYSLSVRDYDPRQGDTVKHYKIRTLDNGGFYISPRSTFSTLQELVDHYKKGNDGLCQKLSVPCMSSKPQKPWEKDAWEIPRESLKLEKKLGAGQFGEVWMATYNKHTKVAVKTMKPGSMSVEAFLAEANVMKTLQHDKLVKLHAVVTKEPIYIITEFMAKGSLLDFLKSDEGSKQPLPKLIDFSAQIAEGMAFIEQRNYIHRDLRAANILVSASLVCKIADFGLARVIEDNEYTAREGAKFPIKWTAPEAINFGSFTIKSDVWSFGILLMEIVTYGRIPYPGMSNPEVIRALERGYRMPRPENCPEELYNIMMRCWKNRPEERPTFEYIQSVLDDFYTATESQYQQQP
Outline: as §1

[21] = read-out: % Enzyme Activity (relative to DMSO controls) / TP-0005801 (0.3µM) / Data 1
[22] = read-out: % Enzyme Activity (relative to DMSO controls) / TP-0005801 (0.3µM) / Data 2

remaining activity at 0.3 µM [1, 21]: 91.7%
remaining activity at 0.3 µM [1, 22]: 91%
remaining activity at 0.3 µM [2, 21]: 92.2%
remaining activity at 0.3 µM [2, 22]: 91.6%
remaining activity at 0.3 µM [3, 21]: 74.7%
remaining activity at 0.3 µM [3, 22]: 73.7%
remaining activity at 0.3 µM [4, 21]: 107%
remaining activity at 0.3 µM [4, 22]: 105%
remaining activity at 0.3 µM [5, 21]: 108%
remaining activity at 0.3 µM [5, 22]: 106%
remaining activity at 0.3 µM [6, 21]: 77.1%
remaining activity at 0.3 µM [6, 22]: 75.8%
remaining activity at 0.3 µM [7, 21]: 88.3%
remaining activity at 0.3 µM [7, 22]: 87.5%
remaining activity at 0.3 µM [8, 21]: 92.4%
remaining activity at 0.3 µM [8, 22]: 88.5%
remaining activity at 0.3 µM [9, 21]: 16.7%
remaining activity at 0.3 µM [9, 22]: 16.2%
remaining activity at 0.3 µM [10, 21]: 51%
remaining activity at 0.3 µM [10, 22]: 50%
remaining activity at 0.3 µM [11, 21]: 95.2%
remaining activity at 0.3 µM [11, 22]: 91.5%
remaining activity at 0.3 µM [12, 21]: 77.1%
remaining activity at 0.3 µM [12, 22]: 74%
remaining activity at 0.3 µM [13, 21]: 97.1%
remaining activity at 0.3 µM [13, 22]: 95.8%
remaining activity at 0.3 µM [14, 21]: 96%
remaining activity at 0.3 µM [14, 22]: 95.5%
remaining activity at 0.3 µM [15, 21]: 101%
remaining activity at 0.3 µM [15, 22]: 98.4%
remaining activity at 0.3 µM [16, 21]: 122%
remaining activity at 0.3 µM [16, 22]: 117%
remaining activity at 0.3 µM [17, 21]: 99%
remaining activity at 0.3 µM [17, 22]: 97.4%
remaining activity at 0.3 µM [18, 21]: 83.9%
remaining activity at 0.3 µM [18, 22]: 83.3%
remaining activity at 0.3 µM [19, 21]: 97.1%
remaining activity at 0.3 µM [19, 22]: 94.6%
remaining activity at 0.3 µM [20, 21]: 105%
remaining activity at 0.3 µM [20, 22]: 102%
SMILES: COc1cc(N2CCN(C)CC2)c(C)cc1Nc1ncc(Br)c(Nc2cccnc2N(C)C)n1 [TP-5801]
